# Measured values reported in ChEMBL document CHEMBL1201862, “PubChem BioAssay data set” (2004).
#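 Growth conditions: 96-well plates. Treatment: test compound, 48 hours, 5 concentrations. Analysis: linear interpolation between bracketing concentrations; unreached endpoints set to highest concentration. Here, GI50 denotes the concentration required for 50% inhibition of growth.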 Calls of active or inactive are those of the source. No stated cut-off is given here; in the data, active = GI50 up to about 1.1 µM and inactive = higher.
# System: HCC 2998
# Assay: NCI-60 cell line screen, 48 h
structure (smiles),measurement,value
c1ccc(-c2ccnc3c2ccc2c(-c4ccccc4)ccnc23)cc1,GI50,3.53 µM (inactive)
